Legend:
[1] = tested on: HT29 cells; assay: Tumor growth in nude mice bearing xenografts of human colon tumor cell line HT29; type: in vivo; conditions: for Treated tumor size/Control tumor size (T/C): p<0.05
Protocol: The antineoplastic activity of TSP plus CPT-11 was evaluated in an art-recognized model for cancer, nude mice bearing xenografts of the human colon tumor cell line HT29.

[2] = Toxicity and mortality in the treated HT29 xenograft nude mice; type: in vivo
Protocol: For in vivo studies, nude mice were inoculated subcutaneously in the left axillary region with 5×10^6 HT29 cells. When tumors were palpable (approximately 50 mg), mice were divided into groups (n=15-22) and treated as follows: (i) no treatment; (ii) TSP alone (5-40 mg/kg intraperitoneally) (iii) CPT-11 alone (100-300 mg/kg intraperitoneally); or (iv) TSP (20 mg/kg)+CPT-11 (150 mg/kg). TSP was injected daily while CPT-11 was administered on days 0, 7, 14, and 21. Mice were weighed and tumors measured twice weekly. […] Treated tumor size/Control tumor size (T/C) equaled 0.64 or 0.57, respectively. […] When TSP was combined with CPT-11, a highly significant inhibition of tumor growth was observed compared to control (T/C=0.1, with p=0.00002) and compared to CPT-11 alone (p=0.0008).

Compound | average T/C ([1]; CPT-11 alone, all doses (100-300 mg/kg intraperitoneally, days 0, 7, 14, 21), day 28, p<0.001) | Toxicity and mortality ([2]; CPT-11 alone at 250 mg/kg intraperitoneally) | Toxicity and mortality ([2]; CPT-11 alone at 300 mg/kg intraperitoneally) | Treated tumor size/Control tumor size (T/C) ([1]; TSP alone 10 mg/kg intraperitoneally daily, day 28) | Treated tumor size/Control tumor size (T/C) ([1]; TSP alone 20 mg/kg intraperitoneally daily, day 28) | Inhibition of tumor growth, other doses ([1]; TSP alone, other doses of 5-40 mg/kg intraperitoneally daily, compared with 10 or 20 mg/kg)
CCc1c2c(nc3ccc(OC(=O)N4CCC(N5CCCCC5)CC4)cc13)-c1cc3c(c(=O)n1C2)COC(=O)[C@]3(O)CC [CPT-11, 7-ethyl-10-[4-(1-piperidino)-1-piperidino]-carbonloxycamptothecin] | 0.3 | induced significant toxicity and mortality | induced significant toxicity and mortality | – | – | –
Thrombospondin-1 [TSP] | – | – | – | 0.64 | 0.57 | less effective

From US6849599B2, “Combination drug therapy” (priority 2000, dated 2005)
